Assays:
Cbl-b = target: T1, Cbl-b (Homo sapiens, UniProt Q13191); assay: Cbl-b probe displacement HTRF binding assay; settings: 0.4 nM biotinylated Cbl-b, 150 nM BODIPY probe
T1 construct: biotin (biotinylated)
How it was run: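 Probe-displacement HTRF in Hepes/NaCl/Triton/TCEP/BSA buffer at room temperature: compound dilutions (to 10 μM) incubated 60 min with 0.4 nM biotin-Cbl-b, 150 nM BODIPY probe added for 15 min, Tb-streptavidin read. Signal normalised to DMSO and no-protein controls; IC50 from four-parameter curve.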

Jurkat cells = assay: IL-2 secretion assay in CD3/CD28-activated Jurkat cells (AlphaLISA); type: cell-based, human; settings: CD3/CD28 T Cell Activator, 24 h, IL-2 AlphaLISA
How it was run: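 IL-2 release quantified by AlphaLISA in supernatants after 24 h CD3/CD28 activation at 37° C. Compounds, 10 μM to 300 pM final in 1:2 steps, were added to 50,000 Jurkat cells/well 1 h before activation; 4-parameter fit gave EC50.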

T1 sequence (Q13191 whole entry, species assumed): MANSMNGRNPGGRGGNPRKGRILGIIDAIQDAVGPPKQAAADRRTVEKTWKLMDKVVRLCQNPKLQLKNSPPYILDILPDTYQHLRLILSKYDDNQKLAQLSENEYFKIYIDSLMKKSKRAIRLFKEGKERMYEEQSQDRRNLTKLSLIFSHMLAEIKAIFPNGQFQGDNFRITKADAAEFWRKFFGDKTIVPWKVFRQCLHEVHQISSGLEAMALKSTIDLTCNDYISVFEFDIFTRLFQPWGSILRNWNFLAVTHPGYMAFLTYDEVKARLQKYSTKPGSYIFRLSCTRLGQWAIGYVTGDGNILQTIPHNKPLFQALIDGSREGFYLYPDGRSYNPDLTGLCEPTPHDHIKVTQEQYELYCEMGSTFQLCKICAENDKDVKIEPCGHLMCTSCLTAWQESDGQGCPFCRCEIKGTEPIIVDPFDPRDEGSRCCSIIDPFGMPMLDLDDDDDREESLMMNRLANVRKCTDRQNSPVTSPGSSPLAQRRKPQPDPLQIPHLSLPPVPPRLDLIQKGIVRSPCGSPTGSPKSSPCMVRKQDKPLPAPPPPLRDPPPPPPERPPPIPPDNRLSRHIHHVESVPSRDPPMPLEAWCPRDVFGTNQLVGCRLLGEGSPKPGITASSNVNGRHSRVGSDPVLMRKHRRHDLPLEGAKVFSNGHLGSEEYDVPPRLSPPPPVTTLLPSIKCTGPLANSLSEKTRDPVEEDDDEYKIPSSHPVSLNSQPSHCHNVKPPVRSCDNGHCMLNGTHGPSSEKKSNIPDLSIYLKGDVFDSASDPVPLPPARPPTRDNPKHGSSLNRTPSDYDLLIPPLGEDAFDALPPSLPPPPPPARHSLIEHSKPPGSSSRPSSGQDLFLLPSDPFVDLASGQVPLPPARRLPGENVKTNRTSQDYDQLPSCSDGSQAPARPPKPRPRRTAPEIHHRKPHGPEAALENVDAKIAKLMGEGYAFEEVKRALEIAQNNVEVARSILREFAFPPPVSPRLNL

IC50 (Cbl-b)	EC50 (Jurkat cells; Homo sapiens)	SMILES	EC50 (Jurkat cells)
< 100 nM	100 to 1000 nM	Cn1cnnc1-c1cc(F)ccc1-c1cc(C2CC2)nc(-n2cnc3cc(CC4CCOCC4)[nH]c3c2=O)c1 [Example 122, 3-[6-cyclopropyl-4-[4-fluoro-2-(4-methyl-1,2,4-triazol-3-yl)phenyl]pyridin-2-yl]-6-(oxan-4-ylmethyl)-5H-pyrrolo[3,2-d]pyrimidin-4-one]	
< 100 nM	100 to 1000 nM	Cn1cnnc1-c1cc(F)ccc1-c1cc(C2CC2)nc(-n2cnc3cc(CC4COC4)[nH]c3c2=O)c1 [Example 123, 3-[6-cyclopropyl-4-[4-fluoro-2-(4-methyl-1,2,4-triazol-3-yl)phenyl]pyridin-2-yl]-6-(oxetan-3-ylmethyl)-5H-pyrrolo[3,2-d]pyrimidin-4-one]	
< 100 nM	100 to 1000 nM	Cc1cc2ncn(-c3cc(-c4ccc(F)cc4-c4nncn4C)cc(C4CC4)n3)c(=O)c2[nH]1 [Example 124, 3-[6-cyclopropyl-4-[4-fluoro-2-(4-methyl-1,2,4-triazol-3-yl)phenyl]-pyridin-2-yl]-6-methyl-5H-pyrrolo[3,2-d]pyrimidin-4-one]	
< 100 nM	100 to 1000 nM	Cn1cnnc1-c1cc(F)ccc1-c1cc(C2CC2)nc(-n2cnc3cc(C4CCOC4)[nH]c3c2=O)c1 (centres unmarked) [Example 125, 3-[6-cyclopropyl-4-[4-fluoro-2-(4-methyl-1,2,4-triazol-3-yl)phenyl]-pyridin-2-yl]-6-(oxolan-3-yl)-5H-pyrrolo[3,2-d]pyrimidin-4-one]	
< 100 nM	< 100 nM	Cn1cnnc1-c1cc(F)ccc1-c1cc(C2CC2)nc(-n2cnc3cc(C(O)C4CCCC4)[nH]c3c2=O)c1 (centres unmarked) [Example 126, 6-[cyclopentyl(hydroxy)methyl]-3-[6-cyclopropyl-4-[4-fluoro-2-(4-methyl-1,2,4-triazol-3-yl)phenyl]pyridin-2-yl]-5H-pyrrolo[3,2-d]pyrimidin-4-one]	
< 100 nM	< 100 nM	Cn1cnnc1-c1cc(F)ccc1-c1cc(C2CC2)nc(-n2cnc3cc(C(F)C4CCCC4)[nH]c3c2=O)c1 (centres unmarked) [Example 127, 6-[cyclopentyl(fluoro)methyl]-3-[6-cyclopropyl-4-[4-fluoro-2-(4-methyl-1,2,4-triazol-3-yl)phenyl]pyridin-2-yl]-5H-pyrrolo[3,2-d]pyrimidin-4-one]	
< 100 nM	100 to 1000 nM	Cn1cnnc1-c1cc(F)ccc1-c1cc(C2CC2)nc(-n2cnc3cc(C(F)F)[nH]c3c2=O)c1 [Example 128, 3-[6-cyclopropyl-4-[4-fluoro-2-(4-methyl-1,2,4-triazol-3-yl)phenyl]-pyridin-2-yl]-6-(difluoromethyl)-5H-pyrrolo[3,2-d]pyrimidin-4-one]	
< 100 nM	< 100 nM	COCCNCc1cc2c(C(F)(F)F)cn(-c3cc(-c4ccc(F)cc4-n4cc(C)nn4)cc(C4CC4)n3)c(=O)c2[nH]1 [Example 131, 6-[6-cyclopropyl-4-[4-fluoro-2-(4-methyltriazol-1-yl)phenyl]pyridin-2-yl]-2-[(2-methoxyethylamino)methyl]-4-(trifluoromethyl)-1H-pyrrolo[2,3-c]pyridin-7-one]	
< 100 nM	< 100 nM	COCCNCc1cc2ncn(-c3cc(-c4ccc(F)cc4-n4nncc4C)cc(C4CC4)n3)c(=O)c2[nH]1 [Example 132]	
< 100 nM	100 to 1000 nM	Cc1cnnn1-c1cc(F)ccc1-c1cc(C2CC2)nc(-n2cc(C(F)(F)F)c3nc(C4CC4)[nH]c3c2=O)c1 [Example 133, 2-cyclopropyl-5-{6-cyclopropyl-4-[4-fluoro-2-(5-methyl-1H-1,2,3-triazol-1-yl)phenyl]-2-pyridyl}-7-(trifluoromethyl)-3,5-dihydro-1,3,5-triaza-4-indenone]	
< 100 nM	< 100 nM	N#Cc1c[nH]c2c(=O)n(-c3cc(-c4ccc(F)cc4-c4nncn4C(F)F)cc(C4CC4)n3)cc(C(F)(F)F)c12 [Example 134, 6-[6-cyclopropyl-4-[2-[4-(difluoromethyl)-1,2,4-triazol-3-yl]-4-fluorophenyl]pyridin-2-yl]-7-oxo-4-(trifluoromethyl)-1H-pyrrolo[2,3-c]pyridine-3-carbonitrile]	
< 100 nM	< 100 nM	Cn1cnnc1-c1cc(F)ccc1-c1cc(C2CC2)nc(-n2cc(C(F)(F)F)c3c(C#N)c[nH]c3c2=O)c1 [Example 135, 6-[6-cyclopropyl-4-[4-fluoro-2-(4-methyl-1,2,4-triazol-3-yl)phenyl]pyridin-2-yl]-7-oxo-4-(trifluoromethyl)-1H-pyrrolo[2,3-c]pyridine-3-carbonitrile]	
< 100 nM	< 100 nM	Cn1ccnc1-c1cc(F)ccc1-c1cc(C2CC2)nc(-n2cc(C(F)(F)F)c3c(C#N)c[nH]c3c2=O)c1 [Example 136, 6-{6-cyclopropyl-4-[4-fluoro-2-(1-methyl-2-imidazolyl)phenyl]-2-pyridyl}-7-oxo-4-(trifluoromethyl)-1,6-dihydro-1,6-diaza-3-indenecarbonitrile]	
< 100 nM	< 100 nM	Cn1cnnc1-c1cc(F)ccc1-c1cc(C2CC2)nc(-n2cc(C(F)(F)F)c3cc(CO)[nH]c3c2=O)c1 [Example 137, 6-[6-cyclopropyl-4-[4-fluoro-2-(4-methyl-1,2,4-triazol-3-yl)phenyl]pyridin-2-yl]-2-(hydroxymethyl)-4-(trifluoromethyl)-1H-pyrrolo[2,3-c]pyridin-7-one]	
< 100 nM	< 100 nM	COCCNCc1cc2ncn(-c3cc(-c4ccc(F)cc4-n4nncc4CF)cc(C4CC4)n3)c(=O)c2[nH]1 [Example 138, 3-[6-cyclopropyl-4-[4-fluoro-2-[5-(fluoromethyl)triazol-1-yl]phenyl]pyridin-2-yl]-6-[(2-methoxyethylamino)methyl]-5H-pyrrolo[3,2-d]pyrimidin-4-one]	
< 100 nM	< 100 nM	CO[C@@H](C)CNCc1cc2ncn(-c3cc(-c4ccc(C#N)cc4-n4nncc4CF)cc(C4CC4)n3)c(=O)c2[nH]1 [Example 139, 4-[2-(2-{[(S)-2-methoxypropylamino]methyl}-7-oxo-1,6-dihydro-1,4,6-triaza-6-indenyl)-6-cyclopropyl-4-pyridyl]-3-[5-(fluoromethyl)-1H-1,2,3-triazol-1-yl]benzonitrile]	
< 100 nM	100 to 1000 nM	Cc1ccnn1-c1cc(F)ccc1-c1cc(C2CC2)nc(-n2cc(C3CC3)c3cc(CNC4(C)CCC4)[nH]c3c2=O)c1 [Example 140, 4-cyclopropyl-6-[6-cyclopropyl-4-[4-fluoro-2-(5-methylpyrazol-1-yl)phenyl]pyridin-2-yl]-2-[[(1-methylcyclobutyl)amino]methyl]-1H-pyrrolo[2,3-c]pyridin-7-one]	
< 100 nM	< 100 nM	Cn1cnnc1-c1cc(F)ccc1-c1cc(C2CC2)nc(-n2cc(C(F)(F)F)c3cc[nH]c3c2=O)c1 [Example 141, 6-[6-cyclopropyl-4-[4-fluoro-2-(4-methyl-1,2,4-triazol-3-yl)phenyl]pyridin-2-yl]-4-(trifluoromethyl)-1H-pyrrolo[2,3-c]pyridin-7-one]	
< 100 nM	100 to 1000 nM	COCCNCc1cc2c(C(F)(F)F)cn(-c3cc(-c4ccc(F)cc4-n4nccc4C(F)(F)F)cc(C4CC4)n3)c(=O)c2[nH]1 [Example 142, 6-[6-cyclopropyl-4-[4-fluoro-2-[5-(trifluoromethyl)pyrazol-1-yl]phenyl]pyridin-2-yl]-2-[(2-methoxyethylamino)methyl]-4-(trifluoromethyl)-1H-pyrrolo[2,3-c]pyridin-7-one]	
< 100 nM	1000 to 5000 nM	Cc1cncnc1-c1cc(F)ccc1-c1cc(C2CC2)nc(N2Cc3ccc(CN4CCC[C@H](C)C4)cc3C2=O)c1 [Example 143, 2-[6-Cyclopropyl-4-[4-fluoro-2-(5-methylpyrimidin-4-yl)phenyl]pyridin-2-yl]-6-[[(3S)-3-methylpiperidin-1-yl]methyl]-3H-isoindol-1-one]	
< 100 nM	< 100 nM	Cn1cnnc1-c1cc(F)ccc1-c1cc(C2CC2)nc(-n2cc(C#N)c3c4c([nH]c3c2=O)CCCC4)c1 [Example 144, 2-{6-Cyclopropyl-4-[4-fluoro-2-(4-methyl-4H-1,2,4-triazol-3-yl)phenyl]-2-pyridyl}-1-oxo-2,5,6,7,8,9-hexahydroβ-carboline-4-carbonitrile]	

SMILES	IC50 (Cbl-b)	EC50 (Jurkat cells; Homo sapiens)	EC50 (Jurkat cells)
COCNCC1=CC2C(N1)C(=O)N(c1cc(-c3ccc(F)cc3-n3nncc3C)cc(C3CC3)n1)CC2C(F)(F)F (centres unmarked) [Example 130, 6-[6-cyclopropyl-4-[4-fluoro-2-(5-methyltriazol-1-yl)phenyl]pyridin-2-yl]-2-[(methoxymethylamino)methyl]-4-(trifluoromethyl)-3a,4,5,7a-tetrahydro-1H-pyrrolo[2,3-c]pyridin-7-one]	< 100 nM		< 100 nM

Source: US20250011318A1 (ARCUS BIOSCIENCES, INC., priority 2023, published 2025)
